Like-named read-outs stand apart in the source and are kept apart here.
Experiments:
[1] = test system: Periplaneta americana; assay: Pesticidal effect (mortality) against Periplaneta americana; type: in vivo; settings: 30 minutes post-treatment, Blend 19 5%
Protocol: With reference to FIG. 6A, the pesticidal effect against Periplaneta americana was determined for Blend 19 (labeled “HL1”, exemplified in Ingredient Family 15 in Table 6) and the composition including clothianidin (CL) and Blend 19.
With reference to FIG. 6B, the pesticidal effect against Periplaneta americana was determined for Blend 19 (labeled “HL1”) and the composition including Imidacloprid and Blend 19.

[2] = molecular target: Aedes aegypti; assay: Pesticidal effect (KD) against Aedes aegypti; type: in vivo
Protocol: With reference to FIG. 4A, the pesticidal effect against Aedes aegypti was determined for Blend 19 (labeled “HL1”, exemplified in Ingredient Family 15 in Table 6) and the composition including clothianidin (CL) and Blend 19.
Similarly, with reference to FIG. 4B, the pesticidal effect against Aedes aegypti was determined for Blend 19 (labeled “HL1”) and the composition including CL and Blend 19.
Similarly, with reference to FIG. 4C, the pesticidal effect against Aedes aegypti was determined for Blend 19 (labeled “HL1”) and the composition including Imidacloprid and Blend 19.
With reference to FIG. 5, the pesticidal effect against Aedes aegypti was determined for Blend 11 (labeled “B5028”, exemplified in Ingredient Family 2 in Table 6) and the composition including Imidacloprid (labeled “I”) and B5028.

[3] = test system: Blattella germanica (German cockroaches); assay: Pesticidal effect against German cockroaches (knock down and 100% kill time); type: in vivo
Protocol: With reference to Table 9, the pesticidal effect against Blattella germanica (German cockroaches) was determined for DM, Blend 12 (exemplified in Ingredient Family 9 of Table 6), and the composition including deltamethrin (DM) and Blend 12.
Similarly, with reference to Table 10, the pesticidal effect against German cockroaches was determined for deltamethrin (DM), Blend 7 (exemplified in Ingredient Family 5 of Table 6), and the composition including DM and Blend 7.

[4] = test system: Drosphila melanogaster; assay: Toxicity against Drosphila melanogaster by direct spray onto flies; type: in vivo, Drosophila melanogaster; settings: 30 flies per composition, Fipronil 20 ppm, Blend 19 0.5 μg/fly, combination 0.5 μg Blend 19 + 20 ppm fipronil
Protocol: With reference to Table 14, the pesticidal effect against drosphila melanogaster was determined for Blend 19 and the composition including fipnoril and Blend 19. The composition of Blend 19 is also exemplified in Ingredient Family 15 of Table 6. Each composition was tested on 30 drosphila melanogaster by spraying directly onto the flies. Treatment with acetone as control at 0.5 μl/fly killed 2 flies, fipnoril alone at 20 ppm killed 12 flies, and Blend 19 alone at 0.5 μg/fly killed 10 flies. However, treatment with fipronil at 20 ppm combined with Blend 19 at 0.5 μg/fly killed all of the 30 flies.

[5] = test system: adult green peach aphids; assay: Greenhouse spray test against adult green peach aphids; type: in vivo; settings: imidacloprid in water at 100 ppm; three days after spraying
Excerpt: Adult green peach aphids were observed and counted on the plants in a greenhouse. Then different compositions were sprayed directly onto the plants with aphids. Three days after the composition was applied, aphids were counted again to evaluate the pesticidal effects of the composition.

[6] = test system: Drosophila sp.; assay: Pesticidal effect (KD) against Drosophila sp.; type: in vivo; settings: 30 seconds post-treatment; Imidacloprid 50 ppm; Blend 19 2.5%; combination 50 ppm + 2.5% (FIG. 4D)
Protocol: Similarly, with reference to FIG. 4D, the pesticidal effect against Drosophila sp. was determined for Blend 19 (labeled “HL1”) and the composition including Imidacloprid and Blend 19.

[7] = test system: thrips; assay: Knockdown and mortality of thrips; type: in vivo
Protocol: Thrips were exposed to three different groups of compositions. Both knockdown (KD) and mortality were measured at indicated time intervals. Knockdown of target pests is measured in a plexilglass chamber at indicated intervals. Mortality of target pests is measured in cylindrical polyethylene containers with 10% sucrose pads. The mortality value is based on a combination of dead and moribund pests over the total number of pests initially released.
Thrips were exposed to three different groups of compositions. […] The composition of Blend 8 is exemplified in Ingredient Family 21 in Table 6.
Thrips were exposed to three different groups of compositions. […] Blend 38 (label “B5049” and “TT 1A”) is exemplified in Ingredient Family 12 in Table 6.

[8] = molecular target: T1, tyramine receptor (TyrR) (Drosophila melanogaster, UniProt P22270); assay: 3H-tyramine saturation and inhibition binding to membranes of Schneider cells expressing tyramine receptor; settings: for efficiency at displacing ^3H-tyramine binding: compared with tyramine
T1 construct: oligonucleotides that are used to amplify the open reading frame of the Drosophila tyramine receptor (TyrR); expressed in transfected cells; whole cells or crude membrane fractions
T1 sequence (P22270 27-601): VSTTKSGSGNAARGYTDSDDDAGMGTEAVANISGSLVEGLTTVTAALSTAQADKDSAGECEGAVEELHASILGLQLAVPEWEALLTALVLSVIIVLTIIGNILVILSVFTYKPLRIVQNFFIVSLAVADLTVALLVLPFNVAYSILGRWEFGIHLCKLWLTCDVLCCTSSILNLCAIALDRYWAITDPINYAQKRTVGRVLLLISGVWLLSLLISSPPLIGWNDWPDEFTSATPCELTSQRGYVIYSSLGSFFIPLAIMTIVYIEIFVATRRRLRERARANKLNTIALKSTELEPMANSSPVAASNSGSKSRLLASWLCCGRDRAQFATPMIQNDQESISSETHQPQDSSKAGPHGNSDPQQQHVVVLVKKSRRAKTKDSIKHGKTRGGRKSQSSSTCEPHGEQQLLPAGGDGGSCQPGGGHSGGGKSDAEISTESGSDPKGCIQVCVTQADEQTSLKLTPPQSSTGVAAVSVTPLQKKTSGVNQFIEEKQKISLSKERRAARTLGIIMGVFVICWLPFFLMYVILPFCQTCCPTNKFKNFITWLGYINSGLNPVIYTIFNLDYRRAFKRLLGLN

[9] = molecular target: T2, tyramine receptor (Drosophila melanogaster, UniProt P22270); assay: Whole cell 3H-tyramine binding/uptake in transfected Schneider cells
T2 construct: oligonucleotides that are used to amplify the open reading frame of the Drosophila tyramine receptor (TyrR); expressed in transfected cells; whole cells or crude membrane fractions
T2 sequence (P22270 27-601): T1 sequence (P22270 27-601)
Excerpt: For transfection, Drosophila Schneider cells are stably transfected with pAc5(B)-TyrR ORF using the calcium phosphate-DNA coprecipitation protocol as described by Invitrogen Drosophila Expression System (DES) manual. The precipitation protocol is the same for either transient or stable transfection except for the use of an antibiotic resistant plasmid for stable transfection. At least about ten clones of stably transfected cells are selected and separately propagated. Stable clones expressing the receptors are selected by whole cell binding/uptake using ^3H-tyramine. […] Nonspecific binding is determined by including about 50 μM unlabeled-tyramine in the reaction. Binding is quantified counting radioactivity using a using a Liquid Scintillation β-counter (Beckman, Model LS1801). […]
Cells transfected with the tyramine receptor (about 1×10^6 cells/ml) are cultured in each well of a multi-well plate. […] Solubilized cells are transferred into about 4 ml Liquid Scintillation Solution (LSS) and vigorously vortexed for about 30 sec before counting the radioactivity using a Liquid Scintillation β-counter (Beckman, Model LS1801) (LSC).
Receptor specific binding data is expressed as fmol specific binding per 1×10^6 cells and measured as a function of ^3H-tyramine concentration. […]

[10] = Thrips, 24 h, read-out: mortality of the thrips
[11] = imidacloprid alone at 1 ppm, till the end of the experiment at 24 hours post treatment
[12] = imidacloprid alone at 10 ppm, till the end of the experiment at 24 hours post treatment
[13] = saturation binding to membranes of Schneider cells expressing tyramine receptor

## CN/C(=N\[N+](=O)[O-])NCc1cnc(Cl)s1 [CL, clothianidin]
[1]; CL 0.05%, combination 0.05% + 5% (FIG. 6A)
  mortality of the target insect: no mortality
[2]; CL alone at 250 ppm (FIG. 4B)
  KD of the target insect: no KD
[2]; CL alone at 500 ppm (FIG. 4A)
  KD of the target insect: no KD

## CC1(C)[C@H](C(=O)O[C@H](C#N)c2cccc(Oc3ccccc3)c2)[C@@H]1C=C(Br)Br [DM, deltamethrin]
[3]; Table 9: DM 0.037 mg/cm^2, Blend 12 1.9 mg/cm^2
  100% Kill: 15 min
[3]; Table 10: DM 0.037 mg/cm^2
  100% Kill: 12 min

## N#Cc1nn(-c2c(Cl)cc(C(F)(F)F)cc2Cl)c(N)c1[S+]([O-])C(F)(F)F (centres unmarked) [Fipronil]
[4]
  # of Flies Killed: 12/30
[4]; listed as fipnoril
  # of Flies Killed: 12

## O=[N+]([O-])NC1=NCCN1Cc1ccc(Cl)nc1 [Imidacloprid]
[5]
  change in aphid numbers: No changes in aphid numbers
[1]; Imidacloprid alone at 0.05%, 0.033% and 0.01%, combination Imidacloprid 0.033% + 5% Blend 19 (FIG. 6B)
  mortality of the target insect: no mortality
[2]; 30 seconds post-treatment, Imidacloprid 250 ppm, Blend 19 2.5%, combination 250 ppm + 2.5% (FIG. 4C)
  KD of the target insect: 20%
[2]; Imidacloprid 500 ppm, B5028 5%, combination 500 ppm + 5% (FIG. 5)
  KD of the target insect: no KD
[6]
  KD of the target insect: 0%
[7]; Thrips, 2 h, read-out: mortality of the thrips
  mortality at 100 ppm: 10%
[7]; Thrips, 4 h, read-out: mortality of the thrips
  mortality at 100 ppm: 20%
[7]; [10]
  mortality at 50 ppm: 50%
  mortality at 100 ppm: 40%
[7]; [11]
  KD of the thrips: no KD
  mortality of the thrips: no mortality
[7]; [12]
  KD of the thrips: no KD
  mortality of the thrips: no mortality
[7]; imidacloprid alone at 20 ppm, 24 hours post treatment
  KD of the thrips: 12%
[7]; imidacloprid alone at 20 ppm, till the end of the experiment at 24 hours post treatment
  mortality of the thrips: no mortality
[7]; imidacloprid alone at 50 ppm, 24 hours post treatment
  KD of the thrips: 100%
[7]; imidacloprid alone at 100 ppm, 2 hours post treatment
  KD of the thrips: 10%
[7]; imidacloprid alone at 100 ppm, 4 hours post treatment
  KD of the thrips: 20%
[7]; imidacloprid alone at 100 ppm, 24 hours post treatment
  KD of the thrips: 80%

## NCC(O)c1ccc(O)cc1 (centres unmarked) [Octopamine]
[8]
  rank order of potency (Ki and EC50): tyramine>octopamine>dopamine>serotonin
  efficiency at displacing ^3H-tyramine binding: less efficient than tyramine

## NCCc1ccc(O)cc1 [Tyramine (TA), Tyramine]
[8]
  rank order of potency (Ki and EC50): tyramine>octopamine>dopamine>serotonin
[9]; concentrations as high as about 100 μM
  response of untransfected cells: do not respond

## NCCc1ccc(O)cc1 [^3H-tyramine]
[8]; [13]
  Bmax: about 0.679 pmol/mg protein
  Kd: ~1.26 nM
[9]; whole transfected cells
  ^3H-tyramine concentration at which maximum specific binding occurs: about 5 nM

## NCCc1ccc(O)c(O)c1 [dopamine, Dopamine]
[8]
  rank order of potency (Ki and EC50): tyramine>octopamine>dopamine>serotonin
  efficiency at displacing ^3H-tyramine binding: less efficient than tyramine
